Test results as given in US20260209777A1, “TARGETING GLYCOSYLPHOSPHATIDYLINOSITOL (GPI) PATHWAY PROTEINS TO TREAT OVARIAN CANCER” (UNIVERSITY OF MASSACHUSETTS, priority 2023, published 2026).

Tests used:
normal B cells = assay: In vitro phagocytosis assay of normal B cells by PBMC-derived M2 macrophages; assay type: cell-based, human; settings: for phagocytosis of B cells: bestatin 20 μM, tosedostat 10 μM vs DMSO, anti-CD24 antibody (clone SN3) vs IgG (FIG. 9B); for selectivity, CD24+ ovarian cancer cells relative to normal CD24+ B cells: comparison of FIG. 9B and 9C
Text: Macrophage Generation and Stimulation: Primary human donor-derived macrophages were generated as described previously (Martinez, Curr Protocol Immunol 2012, Chapter 14:14.28.1-14.28.23). In brief, Leukopaks from anonymous donors were obtained from the Rhode Island Blood (Providence, RI) and peripheral blood […] (PBMCs) were isolated by density gradients centrifugation using Ficoll Paque Plus (Sigma-Aldrich, Cat #17-1440-02) followed by RBC lysis using RBC lysis buffer (eBioscience, Cat #00-4333-57). For monocyte isolation, PBMCs were incubated in Monocyte Attachment Medium (Sigma-Aldrich, Cat #C-28051) for 1 hour at 37° C. and 5% CO2 and then washed three times in Iscove's Modified Dulbecco's Medium (IMDM) (Gibco, Cat #12440053) to remove non-adherent cells. The remaining monocytes were detached and seeded in 96-well plates and cultured at 37° C. and 5% CO2 in IMDM supplemented with 10% FBS (Atlanta Biologicals, Cat #S11550) and 20 ng/ml recombinant human M-CSF (Peprotech, Cat #AF-300-25). After 4 days monocytes were then treated with 20 ng/ml recombinant human IL-4 (Peprotech, Cat #200-04) and 10 ng/mL recombinant human IL-10 (PeproTech, Cat #200-10) for another 3-4 days to obtain M2 polarized macrophages. Macrophage differentiation was confirmed morphologically using microscopy. M2-macrophage polarization was confirmed by immunophenotyping of the M2 marker CD206 using PE-conjugated anti-human anti-CD206 antibody (BioLegend, Cat #321106, clone 15-2, 1:100 dilution). Primary B-cell Isolation and Culture: Pan B cells were isolated by negative selection from PBMCs isolated from Leukopaks (as described above) using a MojoSort Human Pan B Cell Isolation Kit (BioLegend, Cat #480081) according to the manufacturer's instructions. The purity of B cells was confirmed to be >95% by flow cytometry using a FITC anti-human CD19 antibody (BioLegend, Cat #302205, clone HIB19). B cells were cultured in RPMI 1640 medium supplemented with 5% human serum (Sigma-Aldrich, Cat #H6914), MEM non-essential amino acids solution (Gibco, Cat #1140050), and recombinant human IL-2 (50 ng/ml) (PeproTech, Cat #200-02) and IL-4 (10 ng/ml) (PeproTech, Cat #200-04). In vitro Phagocytosis Assays: To facilitate the quantification of phagocytic events, we adapted a microscopy-based fluorescence phagocytosis […] al., J Immunol Methods 2009, 342(1-2):71-7; Lindner et al., Biotechniques 2020, 68(5):245-250) for use with a Celigo imaging cytometer. […] Phagocytic events were quantified by counting the number of red fluorescent (pHrodo+) cells per well using a Celigo Imaging Cytometer (Nexcelom). […]

[1] = tested on: CD24 cell surface expression in OVCAR8 cells; assay: CD24 flow cytometry analysis in OVCAR8 cells; assay type: cell-based, human; settings: for CD24 cell surface expression (MFI): OVCAR8, 3 days, bestatin 10 or 20 μM, tosedostat 5 or 10 μM, ARM1 1 or 2 μM, vs DMSO
Method: Flow Cytometry Analysis: For cell surface protein staining, 1×10^5-1×10^6 cells were first incubated with Fc receptor blocking solution, Human TruStain FcXTM (BioLegend, Cat #422301) for 10 minutes at room temperature. Cells were washed once in FACS buffer (1×PBS, 1.0% bovine serum albumin (BSA) (Sigma) and 0.2% sodium azide (Sigma), and then incubated with antibodies (given below) for 30 minutes at 4° C. in the dark. Cells were also stained with 7-AAD (Biolegend, Cat #420404) for dead cell exclusion, and flow cytometry analysis was performed using a Bio-Rad ZE5 Cell Analyzer. Following antibodies used in this study (all antibodies were used at 1:50 dilution unless otherwise noted): APC anti-human CD24 (BioLegend, Cat #311118, clone ML5), PE anti-human CD24 (eBioscience, Cat #12-0247-42, clone SN3), APC anti-human CD47 (BioLegend, Cat #323124, clone CC2C6), APC anti-human § 2-microglobulin (BioLegend, Cat #395711, clone […]), PE anti-human HLA-A2 (MHC-class I) (BioLegend, Cat #343305, clone BB7.2), APC anti-human CD11b (BioLegend, Cat #982604, clone ICRF44), APC anti-mouse F4/80 antibody (BioLegend, Cat #123116, clone BM8), APC-streptavidin (Thermo Fisher Scientific, Cat #SA1005, 1:100 dilution), PE anti-Calreticulin (Invitrogen, Catalog #MA5-15382, 1:200 dilution). For intracellular staining, cells were fixed with 1% paraformaldehyde for 5 min and permeabilized using the True-Nuclear Transcription Factor Buffer Set (BioLegend, Cat #424401) before the addition of the antibody. Small Molecule Inhibitor and Drug Treatments: OVCAR8 or SKOV3 cells were treated for 3 days with bestatin (Ubenimex) (SelleckChem, Cat #S1591) at 5, 10 or 20 μM (as indicated in the figure legends), Tosedostat (Medchem Express, Cat #HY-14807) at 5 μM or 10 μM (as indicated in the figure legends) or ARM-1 (Medchem Express, Cat #HY-W027340) at 1, or 2 μM (as indicated in the figure legends). Inhibitors were replenished every 24 hours. DMSO (Sigma Aldrich, Cat #D8418) was used as a vehicle. OVCAR8 cells were treated with Docetaxel (SelleckChem, Cat #S1148) at 100 nM or Carboplatin (SelleckChem, Cat #S1215 at 100 nM or Doxorubicin (SelleckChem, Cat #E2516) at 50 nM for 12 hours.

Compound	phagocytosis of B cells (normal B cells)	selectivity, CD24+ ovarian cancer cells relative to normal CD24+ B cells (normal B cells)	total CD24 levels following permeabilization of cells ([1]; OVCAR8, 20 μM bestatin, permeabilized (FIG. 6E))	CD24 cell surface expression (MFI) [1]	ability to decrease CD24 cell surface expression after knockdown of PEPT1 or PEPT2 ([1]; OVCAR8 expressing PEPT1 or PEPT2 shRNA, 20 μM bestatin (FIG. 7C))
CC(C)C[C@H](NC(=O)[C@@H](O)[C@H](N)Cc1ccccc1)C(=O)O [bestatin]	did not undergo phagocytosis	selectivity toward CD24+ ovarian cancer cells relative to normal CD24+ B cells	no significant effect	reduced CD24 cell surface expression in a dose-dependent manner	abrogated
CC(C)C[C@@H](C(=O)N[C@H](C(=O)OC1CCCC1)c1ccccc1)[C@H](O)C(=O)NO [tosedostat]	did not undergo phagocytosis	selectivity toward CD24+ ovarian cancer cells relative to normal CD24+ B cells	–	reduced	–
